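Interpolation was linear, between the two tested concentrations surrounding the appropriate level; five concentrations were tested over 48 hours in 96-well plates. GI50 = concentration required for 50% inhibition of growth.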 Active and inactive are the calls of the source. No stated cut-off is given here; in the data, active = GI50 up to about 1.1 µM and inactive = higher. Some results are limits rather than exact numbers.

Among the test systems are EKVX; SK-OV-3; HCT-116; SF-539; UO-31; SK-MEL-5; IGROV-1; Malme-3M; CAKI-1; SF-295; SW-620; NCI-H522; M14; UACC-257; SNB-19; OVCAR-3; PC-3; HCC 2998; BT-549; CCRF-CEM.
What all share (assay): NCI tumour cell line growth inhibition, 48 h

For the compound `OCC(O)C(O)C(O)C(/C=N\Nc1ncnc2ccc(Br)cc12)=N/Nc1ncnc2ccc(Br)cc12` (centres undefined), the GI50 in the experiment with EKVX was 4.42 µM (inactive); in the experiment on SK-OV-3, 6.38 µM (inactive); in the experiment on HCT-116, 3.09 µM (inactive); in the experiment on SF-539 it was 8.3 µM (inactive); in the experiment on UO-31, 37.5 µM (inactive); in the experiment on SK-MEL-5, 3.37 µM (inactive). The GI50 in the experiment on IGROV-1 is 4.09 µM (inactive); with Malme-3M, 3.53 µM (inactive); in the experiment with CAKI-1, 4.55 µM (inactive); in the experiment on SF-295, 23 µM (inactive); with SW-620, 6.62 µM (inactive); with NCI-H522 it was 0.596 µM (active). The GI50 was 9.48 µM (inactive) in the experiment with M14; 7.48 µM (inactive) with UACC-257; 51.5 µM (inactive) in the experiment with SNB-19; 2.72 µM (inactive) in the experiment with OVCAR-3; 19 µM (inactive) with PC-3.

Turning to `Cc1c(/C=N\NC(=S)NCCNC(=S)N/N=C\c2c(C)n(C)n(-c3ccccc3)c2=O)c(=O)n(-c2ccccc2)n1C`, the GI50 in the experiment with HCC 2998, in the experiment on EKVX, in the experiment on SK-OV-3, in the experiment with HCT-116, with SF-539 and with UO-31 was > 100 µM (inactive) in each case. The GI50 in the experiment on SK-MEL-5, with Malme-3M, with CAKI-1, in the experiment with SF-295, in the experiment with SW-620 and in the experiment with M14 was > 100 µM (inactive) throughout. Also, the GI50 with BT-549, in the experiment on UACC-257, in the experiment with SNB-19, with OVCAR-3 and in the experiment with PC-3 was > 100 µM (inactive) throughout.

`CCN(CC)CCCNc1nc(=O)[nH]c(C)c1C(=O)Nc1cccc2cc3ccccc3cc12`: the GI50 in the experiment with HCC 2998, in the experiment with EKVX, with SK-OV-3, in the experiment on HCT-116, in the experiment with SF-539 and in the experiment on UO-31 was > 100 µM (inactive) each time. Besides, the GI50 with SK-MEL-5, in the experiment with IGROV-1, in the experiment on Malme-3M, with CAKI-1, in the experiment on SF-295 and in the experiment on SW-620 was > 100 µM (inactive) each time. The GI50 in the experiment with NCI-H522 was 85.3 µM (inactive); with M14, > 100 µM (inactive); in the experiment with UACC-257, > 100 µM (inactive); with SNB-19, > 100 µM (inactive); with OVCAR-3 it was > 100 µM (inactive); in the experiment on CCRF-CEM it was > 100 µM (inactive). Moreover, the GI50 in the experiment on PC-3 was > 100 µM (inactive).

Consider `CN(C)c1ccc(/C=C/c2ccc3ccccc3[n+]2C)cc1`, for which the GI50 in the experiment on HCC 2998 is 4.13 µM (inactive); with EKVX it was 1.62 µM (inactive); with SK-OV-3, 5.73 µM (inactive); in the experiment on HCT-116, 1.81 µM (inactive); in the experiment with SF-539, 5.24 µM (inactive); in the experiment with UO-31, 2.07 µM (inactive). In addition, the GI50 is 3.06 µM (inactive) in the experiment with SK-MEL-5; 3.54 µM (inactive) in the experiment on IGROV-1; 4.53 µM (inactive) with Malme-3M; 2.95 µM (inactive) in the experiment with SF-295; 2.12 µM (inactive) with SW-620; 4.12 µM (inactive) in the experiment with M14. For the same compound, the GI50 with BT-549 was 1.2 µM (inactive); in the experiment on SNB-19, 4.31 µM (inactive); in the experiment with OVCAR-3, 2.97 µM (inactive); with CCRF-CEM, 1.66 µM (inactive); in the experiment on PC-3, 1.57 µM (inactive).

With `C#C[C@]1(O)CC[C@H]2[C@@H]3CCC4=C/C(=N/NC(=O)c5cccc6cc7ccccc7nc56)CC[C@@H]4[C@H]3CC[C@@]21CC`, the GI50 in the experiment with HCC 2998 is > 100 µM (inactive); with SK-OV-3 it was > 100 µM (inactive); in the experiment on HCT-116, 60.5 µM (inactive); with SF-539 it was 33.9 µM (inactive); in the experiment with SK-MEL-5 it was 21.9 µM (inactive); in the experiment with IGROV-1, 87.9 µM (inactive). For the same compound, the GI50 in the experiment with CAKI-1 was 29.3 µM (inactive); in the experiment with SW-620, > 100 µM (inactive); in the experiment on M14 it was 84.7 µM (inactive); in the experiment with BT-549, > 100 µM (inactive); in the experiment with UACC-257 it was > 100 µM (inactive); with SNB-19 it was > 100 µM (inactive). Moreover, the figures for the GI50 in the experiment with OVCAR-3, in the experiment with CCRF-CEM and in the experiment with PC-3 were 75.5 µM (inactive), 40.5 µM (inactive) and 62.2 µM (inactive), respectively.

`CN1C(=O)C(O)C[C@@H]1c1ccc(F)cc1` (some centres undefined): the GI50 in the experiment on HCC 2998, in the experiment on EKVX, with SK-OV-3, in the experiment on HCT-116, in the experiment on SF-539 and with UO-31 was > 100 µM (inactive) each time. For the same compound, the GI50 in the experiment on SK-MEL-5, in the experiment with IGROV-1, with CAKI-1, in the experiment on SF-295, with M14 and in the experiment with BT-549 was > 100 µM (inactive) throughout. The GI50 with UACC-257, with SNB-19, in the experiment on OVCAR-3, with CCRF-CEM and in the experiment on PC-3 was > 100 µM (inactive) in each case.

In the case of `CCOC(=O)C1c2[nH]c3ccccc3c2CCN1C(=O)c1ccc(OC)o1` (centres undefined), the GI50 in the experiment on HCC 2998, with EKVX, in the experiment with SK-OV-3, in the experiment on SF-539, with UO-31 and with SK-MEL-5 was > 10 µM (inactive) in each case. The GI50 in the experiment on IGROV-1 was > 10 µM (inactive); in the experiment with Malme-3M it was 1.29 µM (inactive); in the experiment on CAKI-1 it was > 10 µM (inactive); in the experiment with SF-295 it was > 10 µM (inactive); in the experiment with SW-620 it was > 10 µM (inactive); in the experiment with NCI-H522, > 10 µM (inactive). Moreover, the GI50 with M14, in the experiment with UACC-257, with SNB-19, with OVCAR-3, in the experiment on CCRF-CEM and in the experiment with PC-3 was > 10 µM (inactive) each time.

As to `CC1(c2cccc(Cl)c2)CC(c2cccc(Cl)c2)=C(C#N)C(=C(C#N)C#N)N1` (centres undefined), the GI50 with HCC 2998 was 15.8 µM (inactive); with EKVX it was 22.1 µM (inactive); with SK-OV-3, 18.7 µM (inactive); in the experiment with HCT-116, 16.6 µM (inactive); in the experiment on SF-539, 19.1 µM (inactive); with UO-31, 15.7 µM (inactive). In addition, the GI50 with SK-MEL-5 was 14.6 µM (inactive); in the experiment with IGROV-1 it was 16.7 µM (inactive); in the experiment with Malme-3M it was 17.1 µM (inactive); with CAKI-1, 16.5 µM (inactive); with SF-295, 16 µM (inactive); in the experiment on SW-620, 12.1 µM (inactive). Further, the GI50 is 17.1 µM (inactive) in the experiment with M14; 22.8 µM (inactive) in the experiment on BT-549; 20.1 µM (inactive) in the experiment with UACC-257; 17.9 µM (inactive) in the experiment on SNB-19; 10.3 µM (inactive) in the experiment with OVCAR-3; 2.92 µM (inactive) with CCRF-CEM. Moreover, the GI50 in the experiment with PC-3 is 17.6 µM (inactive).

`CC(C(O)c1ccccc1)C(O)(C(F)(F)F)C(F)(F)F` (centres undefined): the GI50 in the experiment on HCC 2998, in the experiment on EKVX, in the experiment with SK-OV-3, with HCT-116, in the experiment with SF-539 and in the experiment on UO-31 was > 100 µM (inactive) throughout. For the same compound, the GI50 in the experiment with SK-MEL-5 is 49.7 µM (inactive); in the experiment on IGROV-1 it was 84.5 µM (inactive); in the experiment on Malme-3M, > 100 µM (inactive); with CAKI-1, > 100 µM (inactive); in the experiment with SF-295, > 100 µM (inactive); with SW-620, > 100 µM (inactive). Moreover, the GI50 in the experiment on NCI-H522, with M14, with UACC-257, in the experiment with SNB-19, in the experiment on OVCAR-3 and with CCRF-CEM was > 100 µM (inactive) in each case. Besides, the GI50 with PC-3 is > 100 µM (inactive).

As for `CC(C)C(N)C(=O)NC(CCC(=O)NCCCCC(N)C(=O)NCCCNc1ccc([N+](=O)[O-])c2[nH]c3ccccc3c(=O)c12)C(N)=O` (centres undefined), the GI50 with HCC 2998 was 40.2 µM (inactive); with EKVX, > 100 µM (inactive); in the experiment on SK-OV-3 it was 44.3 µM (inactive); in the experiment on HCT-116 it was 21.7 µM (inactive); in the experiment on UO-31, 24.4 µM (inactive); with SK-MEL-5, > 100 µM (inactive). The GI50 was > 100 µM (inactive) with CAKI-1; 55.7 µM (inactive) with SF-295; 41.6 µM (inactive) in the experiment with SW-620; 75.3 µM (inactive) in the experiment on M14; 13.7 µM (inactive) with BT-549; > 100 µM (inactive) in the experiment on UACC-257. The GI50 was 35.2 µM (inactive) in the experiment with SNB-19, > 100 µM (inactive) in the experiment with OVCAR-3, 34.5 µM (inactive) in the experiment on CCRF-CEM and 56.6 µM (inactive) with PC-3.

Consider `COc1ccccc1CNCCCCCNCCCCCCCCCCNCCCCCNCc1ccccc1OC`, for which the GI50 with HCC 2998 is 22.4 µM (inactive); in the experiment on HCT-116, 11.8 µM (inactive); with SF-539, 8.65 µM (inactive); with UO-31, 42 µM (inactive); in the experiment with SK-MEL-5, 34.1 µM (inactive); in the experiment on IGROV-1, 18.8 µM (inactive). For the same compound, the GI50 was 24.8 µM (inactive) with Malme-3M; 24.7 µM (inactive) in the experiment with SF-295; 34.4 µM (inactive) with SW-620; 19.8 µM (inactive) in the experiment with NCI-H522; 73.6 µM (inactive) with M14; 23.5 µM (inactive) with BT-549. The GI50 is 38.1 µM (inactive) in the experiment on SNB-19, 47 µM (inactive) in the experiment with OVCAR-3 and 13 µM (inactive) in the experiment with CCRF-CEM.

These data come from ChEMBL document CHEMBL1201862, “PubChem BioAssay data set” (2004).
